pEC50: −log10 of the molar value. Converted amounts (≈) assume the structure as drawn.
What was measured:
[1] = Solubility of compound in 15% DMSO by UV-Vis spectrophotometric method; assay type: physicochemical
[2] = system: Tick-borne encephalitis virus; assay: Antiviral activity against TBEV Absettarov infected in PEK cells assessed as plaque reduction preincubated for 1 hr followed by overlaying with 1.26% methylcellulose and measured after 6 days by gentian violet staining-based assay; assay type: functional, organism-based
[3] = Cytotoxicity against PEK cells after 24 hrs by microscopic method; assay type: cell-based, Sus scrofa; settings: pig
[4] = Cytotoxicity against PEK cells after 7 days by microscopic method; assay type: cell-based, Sus scrofa; settings: pig
[5] = Solubility of compound in 5% DMSO by UV-Vis spectrophotometric method; assay type: physicochemical

Structure (SMILES)	solubility [1]	pEC50 [2]	CC50 at 24 h [3]	CC50 at 168 h [4]	solubility [5]
O=c1[nH]c(=O)n([C@H]2C[C@H](O)[C@@H](CO)O2)cc1C#Cc1ccc2c3cccc4cccc(c5cccc1c52)c43	7.8 µM (≈ 3.92 µg/mL)				
[N-]=[N+]=NCO[C@H]1C[C@H](n2cc(C#Cc3ccc4c5cccc6cccc(c7cccc3c74)c65)c(=O)[nH]c2=O)O[C@@H]1CO		8.27	> 50 µM	35 µM	680 µM (≈ 379 µg/mL)
O=c1[nH]c(=O)n([C@H]2C[C@H](OCn3cc(CCO)nn3)[C@@H](CO)O2)cc1C#Cc1ccc2c3cccc4cccc(c5cccc1c52)c43		7.30	> 50 µM	> 50 µM	
O=c1[nH]c(=O)n([C@H]2C[C@H](OCn3cc(CCCCO)nn3)[C@@H](CO)O2)cc1C#Cc1ccc2c3cccc4cccc(c5cccc1c52)c43		7.64	> 50 µM	> 50 µM	
O=c1[nH]c(=O)n([C@H]2C[C@H](OCn3cc(CO)nn3)[C@@H](CO)O2)cc1C#Cc1ccc2c3cccc4cccc(c5cccc1c52)c43		7.52	> 50 µM	> 50 µM	
O=c1[nH]c(=O)n([C@H]2C[C@H](OCn3cc(CCCO)nn3)[C@@H](CO)O2)cc1C#Cc1ccc2c3cccc4cccc(c5cccc1c52)c43		7.43	> 50 µM	> 50 µM	
CSCO[C@H]1C[C@H](n2cc(C#Cc3ccc4c5cccc6cccc(c7cccc3c74)c65)c(=O)[nH]c2=O)O[C@@H]1CO		8.11	> 50 µM	> 50 µM	150 µM (≈ 84.4 µg/mL)
